The test concerns IL-1β. Put plainly: IL-1β release and expression in human islets exposed to leptin. It counts as cell-based. As to the method: Islet isolation and cell culture. Islets were isolated from pancreases of ten organ donors at the Department of Surgery, University of Geneva Medical Center, as described (32-34). The islet purity was >95%, as judged by dithizone staining (if this degree of purity was not primarily achieved by routine isolation, islets were handpicked). […] For long-term in vitro studies, the islets were cultured on extracellular matrix-coated plates derived from bovine corneal endothelial cells (Novamed Ltd., Jerusalem, Israel), allowing the cells to attach to the dishes and spread, preserving their functional integrity (7;35). Islets were cultured in CMRL 1066 medium containing 100 U/ml penicillin, 100 μg/ml streptomycin and 10% fetal calf serum (Invitrogen Corporation, Paisley, U.K.), hereafter referred to as culture medium. Two days after plating, when most islets were attached and began to flatten, the medium was changed to culture medium containing 5.5, 11.1 or 33.3 mM glucose. In some experiments, islets were additionally cultured with 5, 10 or 500 nM rh leptin (PeproTech, London, UK), 500 ng/ml rh IL-1Ra (R&D Systems Inc., Minneapolis, Minn.) or 50 nM small interfering RNA (siRNA) as described below.
Detection of IL-1Ra and IL-1β expressing cells. Pancreases from routine necropsies were immersion-fixed in formalin, followed by paraffin embedding. In parallel, isolated human were cultured in a suspension for 48 hours and exposed to 10 nM leptin or 33.3 mM glucose, islets were fixed in Bouin solution for 15 min, resuspended in 40 μl of 2% melted agarose in PBS (40° C.), followed by rapid centrifugation and paraffin embedding. Sections were deparaffinized, rehydrated and then incubated in methanol for 4 min. Human islets cultured on extracellular matrix for 4 days were washed in PBS, fixed in 4% paraformaldehyde (30 min, room temperature) followed by permeabilization with 0.5% triton X-100 (4 min, room temperature). Pancreas and islet sections and cultured cells were double-labeled for IL-1Ra or IL-1β and insulin, CD68, glucagon or somatostatin by 1 h of exposure to 10% bovine serum albumin followed by incubation (1 h, 37° C.) with biotinylated goat anti-IL-1Ra or mouse anti-IL-1β antibodies (R&D Systems Inc.). […]
RNA extraction and RT-PCR. […] PCR conditions were: denaturation for 30 seconds at 94° C., annealing for 30 seconds at 60° C., and elongation for 30 seconds at 72° C., followed for real time PCR by quantification for 5 seconds at 82° C.; repetition for 40 cycles. […] For quantitative analysis, we used the LightCycler quantitative PCR system (Roche) and performed quantitative PCR with a commercial kit (LightCycler-DNA Master SYBR Green I; Roche). […]

Consider one substance from US7572770B2, “Use of an interleukin 1 receptor antagonist and/or pyrrolidinedithiocarbamate for the treatment or prophylaxis of type 2 diabetes” (University of Zurich, priority 2002, dated 2009).

As to “leptin: rh leptin (PeproTech); protein encoded by the ob gene”, for the setting “10 nM leptin, 48 hours”, the “IL-1β expression in β-cells (triple immunostaining)” value was “induced IL-1β expression in TUNEL-positive β-cells”. Also, the “IL-1β RNA expression of islets (quantitative RT-PCR)” value (leptin) is “not significantly changed”. Also, the “IL-1β release into culture medium” value reads like this: (leptin, 15 hours) “increased IL-1β release”; (leptin, 48 hours) “remained increased”.
